For series [1], the target named is T1, Proteasome Macropain subunit MB1 (Homo sapiens, UniProt P28074).
T1 sequence (P28074 whole entry): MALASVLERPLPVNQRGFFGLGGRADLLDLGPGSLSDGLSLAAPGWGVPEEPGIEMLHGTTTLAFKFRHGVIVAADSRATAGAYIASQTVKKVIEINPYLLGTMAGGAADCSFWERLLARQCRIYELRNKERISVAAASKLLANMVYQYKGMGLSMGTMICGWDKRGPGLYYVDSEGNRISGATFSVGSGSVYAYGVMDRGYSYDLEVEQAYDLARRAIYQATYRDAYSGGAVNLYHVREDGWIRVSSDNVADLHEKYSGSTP
Briefly: Inhibition of 20S proteasome beta5 subunit (unknown origin) using Suc-LLVY-AMC as flurogenic substrate measured after 1 hr by fluorescence based analysis. Conditions: read-out: pIC50 (converted).

A further series concerns HEK293. Briefly: Cytotoxicity against HEK293 cells at less than 20 uM incubated for 24 hrs. The series is classed as toxicity, cell-based. Conditions: human, hek293, 24 h.
Series [2] in a line: Cytotoxicity against HEK293 cells incubated for 24 hrs. It is filed as toxicity, cell-based. Conditions: human.
Series [3] addresses NACHT, LRR and PYD domains-containing protein 3 (Mus musculus) (UniProt Q8R4B8). As to the kind of experiment: Inhibition of NLRP3 inflammasome activation in LPS-primed mouse J774.A1 cells assessed as reduction in IL-1beta secretion at 1 uM relative to control. The series is classed as cell-based.

Structures are written as SMILES.

The values that follow come from ChEMBL document CHEMBL5113521, “Discovery of a Novel Oral Proteasome Inhibitor to Block NLRP3 Inflammasome Activation with Anti-inflammation Activity” (J Med Chem, 2022).

The inhibition is the share of the control response that was lost under treatment.

Chain of NACHT, LRR and PYD domains-containing protein 3 (Mus musculus) (Q8R4B8 whole entry, the tested form may be a part): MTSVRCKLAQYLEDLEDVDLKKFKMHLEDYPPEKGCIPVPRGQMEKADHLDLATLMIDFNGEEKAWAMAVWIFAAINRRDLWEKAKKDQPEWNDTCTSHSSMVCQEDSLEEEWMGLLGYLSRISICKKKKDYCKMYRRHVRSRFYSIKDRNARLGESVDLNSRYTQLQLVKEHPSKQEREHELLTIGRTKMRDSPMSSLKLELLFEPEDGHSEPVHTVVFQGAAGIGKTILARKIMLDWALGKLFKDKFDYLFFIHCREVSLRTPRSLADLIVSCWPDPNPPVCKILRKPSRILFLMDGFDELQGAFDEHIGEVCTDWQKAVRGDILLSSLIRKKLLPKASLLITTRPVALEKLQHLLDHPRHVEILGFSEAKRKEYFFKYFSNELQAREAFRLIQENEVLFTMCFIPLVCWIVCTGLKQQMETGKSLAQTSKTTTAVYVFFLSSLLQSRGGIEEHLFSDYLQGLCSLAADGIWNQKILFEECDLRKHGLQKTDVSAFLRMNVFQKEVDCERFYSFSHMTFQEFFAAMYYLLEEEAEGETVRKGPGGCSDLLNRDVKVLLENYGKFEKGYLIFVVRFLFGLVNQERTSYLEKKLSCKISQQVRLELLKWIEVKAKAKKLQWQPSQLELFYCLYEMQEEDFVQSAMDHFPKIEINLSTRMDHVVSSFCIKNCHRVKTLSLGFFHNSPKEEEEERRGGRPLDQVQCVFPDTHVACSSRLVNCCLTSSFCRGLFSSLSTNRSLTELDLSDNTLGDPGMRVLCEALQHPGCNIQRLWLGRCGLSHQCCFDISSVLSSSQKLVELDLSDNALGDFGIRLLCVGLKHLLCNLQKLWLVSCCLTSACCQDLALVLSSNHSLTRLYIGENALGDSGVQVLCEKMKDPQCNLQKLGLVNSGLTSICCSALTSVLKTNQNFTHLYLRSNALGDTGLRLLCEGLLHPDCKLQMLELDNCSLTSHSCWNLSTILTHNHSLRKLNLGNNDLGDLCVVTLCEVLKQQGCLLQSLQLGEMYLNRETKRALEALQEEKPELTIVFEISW

Turning to `COc1ccc(Cl)cc1C(=O)N[C@@H](Cc1ccccc1)C(=O)N[C@@H](CC(C)C)B(O)O`, the IC50 in series [1] is 8.32 nM.
The same measure, in the same setting: the figure for `CC(C)C[C@H](NC(=O)[C@H](Cc1ccccc1)NC(=O)c1cc(Cl)ccc1F)B(O)O` is 3.02 nM.
For `CC(C)C[C@H](NC(=O)[C@H](Cc1ccccc1)NC(=O)c1ccccn1)B(O)O`, the Activity result in the series on HEK293 is “Non-Toxic”. In addition, the IC50 in series [1] was 6.76 nM. Moreover, in series [2], the IC50 at 24 h is less than 79.4 nM.
On to `CC(C)C[C@H](NC(=O)CNC(=O)c1cc(Cl)ccc1Cl)B(O)O`, for which, in series [3], the inhibition was 77%.
As for `CC(C)C[C@H](NC(=O)c1ccc(CNC(=O)c2cc(Cl)ccc2Cl)cc1)B(O)O`, the IC50 in series [1] is greater than 50.1 nM.
Turning to `CC(C)C[C@H](NC(=O)[C@H](CC(C)C)NC(=O)c1cc(Cl)ccc1Cl)B(O)O`, in series [1], the IC50 is 4.07 nM.
For `CC(C)C[C@H](NC(=O)[C@H](Cc1ccccc1)NC(=O)c1ccc(F)cc1F)B(O)O`, the IC50 in series [1] is 4.79 nM.
Regarding `COc1ccc(F)cc1C(=O)N[C@@H](Cc1ccccc1)C(=O)N[C@@H](CC(C)C)B(O)O`, the IC50 in series [1] is 4.47 nM.
As to `CC(C)C[C@H](NC(=O)[C@H](Cc1ccccc1)NC(=O)c1cnccn1)B(O)O` [BORTEZOMIB], in the series on HEK293, the Activity entry is listed as “Non-Toxic”. Also, the IC50 at 24 h in series [2] is less than 79.4 nM.
`CC(C)C[C@H](NC(=O)[C@H](Cc1ccccc1)NC(=O)c1cc(Cl)ccc1Cl)B(O)O`: the IC50 in series [1] is 6.31 nM.
As for `CC(C)C[C@H](NC(=O)[C@H](Cc1ccccc1)NC(=O)c1cnc2ccccc2n1)B(O)O`, the IC50 in series [1] is 13.2 nM.
On to `CC(C)C[C@H](NC(=O)[C@H](Cc1ccccc1)NC(=O)c1c(Cl)cccc1Cl)B(O)O`, for which, in the series on HEK293, the Activity result is listed as “Non-Toxic”. The IC50 in series [1] is 3.02 nM. The same compound gave an IC50 at 24 h in series [2] of less than 79.4 nM.
As to `CC(C)C[C@H](NC(=O)[C@H](Cc1ccccc1)NS(=O)(=O)c1cc(Cl)ccc1Cl)B(O)O`, the IC50 in series [1] is 19.5 nM.
As to `CC(C)C[C@H](NC(=O)[C@H](Cc1ccccc1)NC(=O)c1cccc(Cl)c1Cl)B(O)O`, the Activity entry with HEK293 is listed as “Non-Toxic”. The IC50 in series [1] was 1.2 nM. In series [2], this compound gave an IC50 at 24 h of less than 79.4 nM.
On to `CC(C)C[C@H](NC(=O)[C@H](Cc1ccccc1)NC(=O)c1cnccn1)C(=O)O`, for which the IC50 in series [1] was 50.1 nM.
The same measure, in the same setting: the figure for `CC(C)C[C@H](NC(=O)[C@@H](NC(=O)c1cc(Cl)ccc1Cl)c1ccccc1)B(O)O` is 7.08 nM.
Same read-out and setting: the figure for `Cc1cncc(C(=O)N[C@@H](Cc2ccccc2)C(=O)N[C@@H](CC(C)C)B(O)O)n1` is 32.4 nM.
Consider `CC(C)C[C@H](NC(=O)[C@H](Cc1ccccc1)NC(=O)c1nc(Cl)ccc1Cl)B(O)O`, for which the Activity entry in the series with HEK293 is recorded as “Non-Toxic”. In series [1], the IC50 is 4.27 nM. The compound further gave an IC50 at 24 h in series [2] of less than 79.4 nM.
For the compound `CC(C)C[C@H](NC(=O)[C@H](CO)NC(=O)c1cc(Cl)ccc1Cl)B(O)O`, the IC50 in series [1] is 5.13 nM.
Same read-out and setting: the figure for `CC(C)C[C@H](NC(=O)c1cc(Cl)ccc1Cl)B(O)O` is greater than 50.1 nM.
Still for that read-out and setting: the figure for `CC(C)C[C@H](NC(=O)[C@H](Cc1ccccc1)NC(=O)c1cc(F)ccc1F)B(O)O` is 6.03 nM.
Still for that read-out and setting: the figure for `CC(C)C[C@H](NC(=O)[C@H](Cc1ccc2ccccc2c1)NC(=O)c1cc(Cl)ccc1Cl)B(O)O` is 12 nM.
Turning to `CC(C)C[C@H](NC(=O)[C@H](Cc1ccccc1)NC(=O)c1ccc(Cl)cc1Cl)B(O)O`, in series [1], the IC50 is 3.47 nM.
On the same count and under the same terms, the figure for `CC(C)C[C@H](NC(=O)CN(C)C(=O)c1cc(Cl)ccc1Cl)B(O)O` is greater than 50.1 nM.
Consider `CC(C)C[C@H](NC(=O)[C@H](Cc1ccccc1)NC(=O)c1cccc(F)c1F)B(O)O`, for which the Activity result with HEK293 is on record as “Non-Toxic”. In addition, the IC50 in series [1] is 1.12 nM. In series [2], this compound had an IC50 at 24 h of less than 79.4 nM.
Take `CC[C@@H](C)[C@H](NC(=O)c1cc(Cl)ccc1Cl)C(=O)N[C@@H](CC(C)C)B(O)O`: the IC50 in series [1] is 3.24 nM.
`O=C(O)C[C@@H]1CC[C@H](NC(=O)Cc2cccs2)B(O)O1`: in series [3], the inhibition turned out to be 7.8%.
For `CC(C)C[C@H](NC(=O)[C@H](Cc1ccc(O)cc1)NC(=O)c1cc(Cl)ccc1Cl)B(O)O`, the Activity entry in the series on HEK293 is “Non-Toxic”. In addition, in series [1], the IC50 was 1 nM. The same compound showed an IC50 at 24 h in series [2] of less than 79.4 nM.
As for `CC(C)C[C@H](NC(=O)[C@@H](NC(=O)c1cc(Cl)ccc1Cl)C(C)C)B(O)O`, in series [1], the IC50 is 0.708 nM.
For the compound `CC(C)C[C@H](NC(=O)[C@H](Cc1ccccc1)NC(=O)c1cc(Cl)ccc1Cl)C(=O)O`, the IC50 in series [1] was 50.1 nM.
